Reference: patent US10202387B2, “Heterocyclyl linked imidazopyridazine derivatives as PI3KB inhibitors” (Janssen Pharmaceutica NV, priority 2014, dated 2019)

What was measured:
PIK3Cδ_h = target: T1, PIK3Cδ_h (Homo sapiens, UniProt O00329); experiment: Enzyme binding assay (KINOMEscan); details: DiscoveRx
T1 construct: purchased DiscoveRx Corporation, San Diego (KINOMEscan service)
T1 sequence (O00329 1-1044): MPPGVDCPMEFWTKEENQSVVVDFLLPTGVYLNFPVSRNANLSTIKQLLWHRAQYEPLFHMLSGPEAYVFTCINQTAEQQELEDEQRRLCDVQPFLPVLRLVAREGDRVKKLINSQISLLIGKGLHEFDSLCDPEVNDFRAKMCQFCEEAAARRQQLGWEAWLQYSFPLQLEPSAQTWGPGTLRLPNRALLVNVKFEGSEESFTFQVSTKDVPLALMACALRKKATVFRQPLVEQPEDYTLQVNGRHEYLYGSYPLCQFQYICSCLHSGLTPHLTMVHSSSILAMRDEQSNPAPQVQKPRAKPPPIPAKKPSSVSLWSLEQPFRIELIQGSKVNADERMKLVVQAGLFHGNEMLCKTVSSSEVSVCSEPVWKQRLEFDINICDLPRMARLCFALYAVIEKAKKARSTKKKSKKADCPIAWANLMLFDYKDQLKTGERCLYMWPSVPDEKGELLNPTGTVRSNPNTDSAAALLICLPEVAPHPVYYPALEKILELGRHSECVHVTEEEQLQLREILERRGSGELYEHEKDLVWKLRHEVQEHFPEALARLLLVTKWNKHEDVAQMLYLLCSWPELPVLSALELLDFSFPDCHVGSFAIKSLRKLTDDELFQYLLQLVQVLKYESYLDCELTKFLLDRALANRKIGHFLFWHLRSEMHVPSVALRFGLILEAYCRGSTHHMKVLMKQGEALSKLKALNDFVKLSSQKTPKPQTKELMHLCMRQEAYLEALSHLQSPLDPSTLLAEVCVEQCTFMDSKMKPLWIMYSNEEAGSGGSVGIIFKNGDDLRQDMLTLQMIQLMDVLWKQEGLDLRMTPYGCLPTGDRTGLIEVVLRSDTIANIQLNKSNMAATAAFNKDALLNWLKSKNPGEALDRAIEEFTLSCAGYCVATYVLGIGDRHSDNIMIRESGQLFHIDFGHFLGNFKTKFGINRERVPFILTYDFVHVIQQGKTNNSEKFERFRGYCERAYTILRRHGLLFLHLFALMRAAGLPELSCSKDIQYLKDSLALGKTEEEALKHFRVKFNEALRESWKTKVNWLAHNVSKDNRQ
Experimental: (§1) Enzyme Binding Assays (KINOMEscan®)
(§2) Kinase enzyme binding affinities of compounds disclosed herein were determined using the KINOMEscan technology performed by DiscoveRx Corporation, San Diego, Calif., USA (www.kinomescan.com). Table A reports the obtained Kd values (nM), with the Kd being the inhibitor binding constant: […]

PIK3Cγ_h = target: T2, PIK3Cγ_h (Homo sapiens, UniProt P48736); experiment: Enzyme binding assay (KINOMEscan); details: DiscoveRx
T2 construct: purchased DiscoveRx Corporation, San Diego (KINOMEscan service)
Experimental: as §1, §2

PIK3Cα_h = target: T3, PIK3Cα_h (Homo sapiens, UniProt P42336); experiment: Enzyme binding assay (KINOMEscan); details: DiscoveRx
T3 construct: purchased DiscoveRx Corporation, San Diego (KINOMEscan service)
Experimental: as §1, §2

MTOR_h = target: T4, MTOR_h (Homo sapiens, UniProt P42345); experiment: Enzyme binding assay (KINOMEscan); details: DiscoveRx
T4 construct: purchased DiscoveRx Corporation, San Diego (KINOMEscan service)
Experimental: as §1, §2

PIK3Cβ_h = target: T5, PIK3Cβ_h (Homo sapiens, UniProt P42338); experiment: Enzyme binding assay (KINOMEscan); details: DiscoveRx
T5 construct: purchased DiscoveRx Corporation, San Diego (KINOMEscan service)
Experimental: as §1, §2

[1] = test system: Akt phosphorylated at Thr308 in PC-3 cells; experiment: Cellular assay: phosphorylation of Akt (Thr308) in PC-3 cells, MSD ELISA; assay type: cell-based; details: Homo sapiens, 1 h, 60 min incubation with compound, read-out: IC50 pAkt_Thr308
Experimental: (§3) Cellular activity of PI3Kβ inhibitors was determined by quantifying the phosphorylation of Akt in PC-3 cells. Akt phosphorylated at Ser473 and Thr308 were measured using an enzyme-linked immunosorbent assay (ELISA; Meso Scale Discovery (MSD). Gaithersburg, Md.) and specific primary antibodies from MSD.
(§4) On day 1, PC3 cells (ATCC […]) were seeded into PerkinElmer MW96 plates at 25.000 cells per well, in 75 μl complete culture medium (DMEM (Dulbecco's Modified Eagle's Medium) high glucose. AQmedia™, D0819, Sigma-Aldrich) containing 10% heat inactivated FCS (Fetal Bovine Serum) and incubated at 37° C., 5% CO2 during 24 hours. On day 2, compound or DMSO (dimethyl sulfoxide) (0.3%) was added and cells were further incubated for 60 min at 37° C., 5% CO2 in a total volume of 100 μl of medium.
(§5) The phosphoprotein assay was executed according to vendor instructions in the Phospho-Akt (Ser473) Assay Whole Cell Lysate Kit (MSD #K15100D-3) and the Phospho-Akt (Thr308) Assay Whole Cell Lysate Kit (MSD #K151DYD-3) using the lysis, blocking and wash buffer provided.
(§6) Briefly, at the end of the cell treatment period, media were removed by aspiration and adherent cells were lysed in 50 μl ice-cold lysis buffer. MSD plates are supplied pre-coated with capture antibodies for Phospho-Akt (Ser473 and Thr308). After blocking, lysates from tissue culture plates were added and plates were washed. Then, a solution containing the detection antibody (anti-total Akt conjugated with an electrochemiluminescent compound-MSD Sulfo-tag label) was added. The signals were detected using an MSD SECTOR Imager 6000 and are proportional to the phospho-Akt titres.
(§7) Data were processed. The percentage of inhibition was plotted against the log concentration of test compounds, and the sigmoidal log concentration-effect curve of best fit was calculated by nonlinear regression analysis. From these concentration-response curves, the IC50 values were calculated. Five concentrations were used for curve fitting.

[2] = test system: Akt phosphorylated at Ser473 in PC-3 cells; experiment: Cellular assay: phosphorylation of Akt (Ser473) in PC-3 cells, MSD ELISA; assay type: cell-based; details: Homo sapiens, 1 h, 60 min incubation with compound, read-out: IC50 pAkt_S473
Experimental: as §3, §4, §5, §6, §7

T2 sequence (P48736 whole entry): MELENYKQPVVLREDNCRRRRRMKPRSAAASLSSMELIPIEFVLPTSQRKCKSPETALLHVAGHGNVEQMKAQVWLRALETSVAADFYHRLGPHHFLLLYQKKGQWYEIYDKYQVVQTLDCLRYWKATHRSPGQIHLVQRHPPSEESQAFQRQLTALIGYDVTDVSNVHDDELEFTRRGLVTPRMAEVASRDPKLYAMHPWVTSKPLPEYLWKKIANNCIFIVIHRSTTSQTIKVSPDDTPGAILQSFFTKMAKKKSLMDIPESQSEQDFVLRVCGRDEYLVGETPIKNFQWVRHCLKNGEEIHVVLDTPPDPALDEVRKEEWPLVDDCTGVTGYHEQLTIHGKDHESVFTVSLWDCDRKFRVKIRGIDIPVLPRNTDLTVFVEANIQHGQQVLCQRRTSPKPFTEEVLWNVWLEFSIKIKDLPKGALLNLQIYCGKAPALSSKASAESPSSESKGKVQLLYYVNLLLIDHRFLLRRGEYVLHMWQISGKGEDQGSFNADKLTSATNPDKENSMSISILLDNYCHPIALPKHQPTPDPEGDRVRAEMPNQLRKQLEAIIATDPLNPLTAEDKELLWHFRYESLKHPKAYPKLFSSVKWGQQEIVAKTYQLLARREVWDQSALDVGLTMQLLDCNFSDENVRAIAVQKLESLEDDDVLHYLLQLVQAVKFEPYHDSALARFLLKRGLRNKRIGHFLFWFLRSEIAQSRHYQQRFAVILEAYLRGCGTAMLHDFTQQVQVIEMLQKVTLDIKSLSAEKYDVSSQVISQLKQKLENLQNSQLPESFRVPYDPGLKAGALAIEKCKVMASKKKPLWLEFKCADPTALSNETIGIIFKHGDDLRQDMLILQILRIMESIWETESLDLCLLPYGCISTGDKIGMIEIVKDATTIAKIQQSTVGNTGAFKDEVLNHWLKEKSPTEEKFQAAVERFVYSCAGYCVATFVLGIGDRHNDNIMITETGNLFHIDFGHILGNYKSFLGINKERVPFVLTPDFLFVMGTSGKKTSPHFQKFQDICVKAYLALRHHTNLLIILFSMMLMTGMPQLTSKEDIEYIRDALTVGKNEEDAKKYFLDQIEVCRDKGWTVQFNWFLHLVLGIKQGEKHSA
T3 sequence (P42336 whole entry): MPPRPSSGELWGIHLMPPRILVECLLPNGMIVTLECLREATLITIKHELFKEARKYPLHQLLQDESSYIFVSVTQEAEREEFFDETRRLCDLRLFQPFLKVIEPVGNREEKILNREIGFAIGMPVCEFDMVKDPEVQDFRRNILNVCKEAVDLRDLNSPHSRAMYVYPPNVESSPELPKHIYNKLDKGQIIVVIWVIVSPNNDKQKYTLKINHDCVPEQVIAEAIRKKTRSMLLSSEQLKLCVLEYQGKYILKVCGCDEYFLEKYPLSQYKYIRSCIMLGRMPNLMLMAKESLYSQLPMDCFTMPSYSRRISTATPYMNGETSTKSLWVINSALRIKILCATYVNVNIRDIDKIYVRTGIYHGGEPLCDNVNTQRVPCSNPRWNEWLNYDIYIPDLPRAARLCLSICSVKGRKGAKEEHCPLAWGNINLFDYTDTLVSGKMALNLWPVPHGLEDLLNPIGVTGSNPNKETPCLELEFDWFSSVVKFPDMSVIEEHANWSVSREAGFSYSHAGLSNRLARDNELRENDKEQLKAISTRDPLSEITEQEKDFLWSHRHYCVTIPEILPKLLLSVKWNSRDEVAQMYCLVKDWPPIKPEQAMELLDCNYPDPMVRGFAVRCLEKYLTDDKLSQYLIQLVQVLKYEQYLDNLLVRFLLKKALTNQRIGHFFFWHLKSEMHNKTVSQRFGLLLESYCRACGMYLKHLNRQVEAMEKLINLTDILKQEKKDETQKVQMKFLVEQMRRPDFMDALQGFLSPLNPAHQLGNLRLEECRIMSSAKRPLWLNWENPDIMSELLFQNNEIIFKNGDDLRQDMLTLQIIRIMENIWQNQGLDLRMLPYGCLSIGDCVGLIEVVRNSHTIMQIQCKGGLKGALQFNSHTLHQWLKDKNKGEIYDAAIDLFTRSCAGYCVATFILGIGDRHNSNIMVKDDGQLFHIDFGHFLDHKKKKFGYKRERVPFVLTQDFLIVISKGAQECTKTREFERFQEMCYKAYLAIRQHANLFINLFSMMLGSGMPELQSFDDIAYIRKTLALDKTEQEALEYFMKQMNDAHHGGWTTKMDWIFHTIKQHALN
T5 sequence (P42338 whole entry): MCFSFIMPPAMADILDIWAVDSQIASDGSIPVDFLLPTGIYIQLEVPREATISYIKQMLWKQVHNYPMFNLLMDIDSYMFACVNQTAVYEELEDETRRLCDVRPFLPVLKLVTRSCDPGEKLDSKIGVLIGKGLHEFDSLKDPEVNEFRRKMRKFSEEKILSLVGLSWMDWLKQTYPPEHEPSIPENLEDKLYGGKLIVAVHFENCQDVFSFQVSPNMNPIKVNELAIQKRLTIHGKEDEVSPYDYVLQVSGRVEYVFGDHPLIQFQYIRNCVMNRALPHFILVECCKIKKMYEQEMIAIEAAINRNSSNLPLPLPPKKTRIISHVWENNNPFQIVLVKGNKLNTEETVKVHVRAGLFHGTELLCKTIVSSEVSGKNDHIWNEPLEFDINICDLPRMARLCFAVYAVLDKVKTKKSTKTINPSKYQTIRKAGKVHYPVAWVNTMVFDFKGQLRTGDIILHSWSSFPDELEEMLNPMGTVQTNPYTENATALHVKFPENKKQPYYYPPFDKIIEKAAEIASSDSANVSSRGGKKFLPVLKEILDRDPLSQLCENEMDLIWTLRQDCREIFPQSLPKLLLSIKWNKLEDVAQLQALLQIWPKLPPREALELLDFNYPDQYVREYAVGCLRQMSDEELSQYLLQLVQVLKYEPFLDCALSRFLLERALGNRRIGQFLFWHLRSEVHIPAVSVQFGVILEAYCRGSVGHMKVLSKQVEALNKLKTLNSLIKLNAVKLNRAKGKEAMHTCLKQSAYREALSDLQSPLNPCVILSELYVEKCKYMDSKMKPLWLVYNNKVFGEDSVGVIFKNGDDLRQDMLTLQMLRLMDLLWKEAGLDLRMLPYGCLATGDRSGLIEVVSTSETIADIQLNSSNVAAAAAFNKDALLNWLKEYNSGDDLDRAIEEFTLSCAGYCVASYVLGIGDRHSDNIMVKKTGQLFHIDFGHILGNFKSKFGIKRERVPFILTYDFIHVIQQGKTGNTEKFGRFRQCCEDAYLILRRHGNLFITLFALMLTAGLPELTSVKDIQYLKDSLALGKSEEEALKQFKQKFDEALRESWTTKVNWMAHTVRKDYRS

## Cc1c(Cc2c(CNC(=O)[C@H]3CCCN3)nc3c(N)cc(N4CCOCC4)nn23)cccc1C(F)(F)F (stereo in doubt) [Compound 37]
PIK3Cδ_h
  Kd: 68 nM
PIK3Cγ_h
  Kd: 4900 nM
PIK3Cα_h
  Kd: 5490 nM
MTOR_h
  Kd: 5130 nM
PIK3Cβ_h
  Kd: 0.8 nM
[1]
  IC50: 141 nM
[2]
  IC50: 158 nM
other
  melting point: 212 °C

## Cc1c(Cc2c(CN3CC4(C3)CS(=O)(=O)C4)nc3c(-c4cnc[nH]4)cc(N4CCOCC4)nn23)cccc1C(F)(F)F [Compound 1]
PIK3Cδ_h
  Kd: 12 nM
PIK3Cγ_h
  Kd: 933 nM
PIK3Cα_h
  Kd: 162 nM
MTOR_h
  Kd: 3160 nM
PIK3Cβ_h
  Kd: 1.2 nM
[1]
  IC50: ~4 nM
[2]
  IC50: 9 nM
other
  melting point: 217 °C

## Cc1c(Cc2c(CN3CC4(CCS4(=O)=O)C3)nc3c(N)cc(N4CCOCC4)nn23)cccc1C(F)(F)F [Compound 2]
PIK3Cδ_h
  Kd: 23 nM
PIK3Cγ_h
  Kd: > 30200 nM
PIK3Cα_h
  Kd: 5490 nM
MTOR_h
  Kd: 21400 nM
PIK3Cβ_h
  Kd: 2.1 nM
[1]
  IC50: ~4 nM
[2]
  IC50: 6 nM
other
  melting point: 180 °C

## Cc1c(Cc2c(CN3CCC(S(C)(=O)=O)CC3)nc3c(N)cc(N4CCOCC4)nn23)cccc1C(F)(F)F [Compound 4]
PIK3Cδ_h
  Kd: 166 nM
PIK3Cγ_h
  Kd: > 30200 nM
PIK3Cα_h
  Kd: 3980 nM
MTOR_h
  Kd: > 30200 nM
PIK3Cβ_h
  Kd: 2.3 nM
[1]
  IC50: ~33 nM
[2]
  IC50: 18 nM
other
  melting point: 188 °C

## Cc1c(Cc2c(CN3CCC(S(C)(=O)=O)C3)nc3c(N)cc(N4CCOCC4)nn23)cccc1C(F)(F)F (stereo not shown) [Compound 6]
PIK3Cδ_h
  Kd: 263 nM
PIK3Cγ_h
  Kd: > 30200 nM
PIK3Cα_h
  Kd: 7080 nM
MTOR_h
  Kd: 21900 nM
PIK3Cβ_h
  Kd: 2.4 nM
[1]
  IC50: ~13 nM
[2]
  IC50: 40 nM
other
  melting point: 159 °C

## Cc1c(Cc2c(CN3CC(S(C)(=O)=O)C3)nc3c(N)cc(N4CCOCC4)nn23)cccc1C(F)(F)F [Compound 8]
PIK3Cδ_h
  Kd: 195 nM
PIK3Cγ_h
  Kd: 30900 nM
PIK3Cα_h
  Kd: 11500 nM
MTOR_h
  Kd: 15500 nM
PIK3Cβ_h
  Kd: 1.6 nM
[1]
  IC50: ~20 nM
[2]
  IC50: 25 nM
other
  melting point: 210 °C

## Cc1c(Cc2c(CN3CCC(CO)CC3)nc3c(N)cc(N4CCOCC4)nn23)cccc1C(F)(F)F [Compound 9]
PIK3Cδ_h
  Kd: 65 nM
PIK3Cγ_h
  Kd: > 30200 nM
PIK3Cα_h
  Kd: 14500 nM
MTOR_h
  Kd: > 30200 nM
PIK3Cβ_h
  Kd: 0.6 nM
[1]
  IC50: ~39 nM
[2]
  IC50: 76 nM
other
  melting point: 215 °C

## Cc1c(Cc2c(CN3CCS(=O)(=O)CC3)nc3c(N)cc(N4CCOCC4)nn23)cccc1C(F)(F)F [Compound 11]
PIK3Cδ_h
  Kd: 81 nM
PIK3Cγ_h
  Kd: > 30200 nM
PIK3Cα_h
  Kd: 1860 nM
MTOR_h
  Kd: 11700 nM
PIK3Cβ_h
  Kd: 0.7 nM
[1]
  IC50: 7 nM
[2]
  IC50: 10 nM
other
  melting point: 214 °C

## Cc1c(Cc2c(CN3CCCC(CO)C3)nc3c(-c4ncc[nH]4)cc(N4CCOCC4)nn23)cccc1C(F)(F)F (stereo not shown) [Compound 17]
PIK3Cδ_h
  Kd: 79 nM
PIK3Cγ_h
  Kd: 6760 nM
PIK3Cα_h
  Kd: 813 nM
MTOR_h
  Kd: > 30200 nM
PIK3Cβ_h
  Kd: < 1.5 nM
[1]
  IC50: 58 nM
[2]
  IC50: 65 nM
other
  melting point: 171 °C

## Cc1c(Cc2c(CN3CC(O)C3)nc3c(-c4ncc[nH]4)cc(N4CCOCC4)nn23)cccc1C(F)(F)F [Compound 19]
PIK3Cδ_h
  Kd: 52 nM
PIK3Cγ_h
  Kd: 891 nM
PIK3Cα_h
  Kd: 513 nM
MTOR_h
  Kd: 4370 nM
PIK3Cβ_h
  Kd: 1.6 nM
[1]
  IC50: 54 nM
[2]
  IC50: 50 nM
other
  melting point: 198 °C

## Cc1c(Cc2c(CN3CCC4(CCS(=O)(=O)C4)C3)nc3c(N)cc(N4CCOCC4)nn23)cccc1C(F)(F)F (stereo not shown) [Compound 34]
PIK3Cδ_h
  Kd: 224 nM
PIK3Cγ_h
  Kd: > 30200 nM
PIK3Cα_h
  Kd: 6310 nM
MTOR_h
  Kd: 18200 nM
PIK3Cβ_h
  Kd: 1.5 nM
[1]
  IC50: ~74 nM
[2]
  IC50: 87 nM

## Cc1c(Cc2c(CNC(=O)[C@@H]3CCCN3)nc3c(N)cc(N4CCOCC4)nn23)cccc1C(F)(F)F [Compound 35]
PIK3Cδ_h
  Kd: 7 nM
PIK3Cγ_h
  Kd: 8640 nM
PIK3Cα_h
  Kd: 2050 nM
MTOR_h
  Kd: 3220 nM
PIK3Cβ_h
  Kd: 0.2 nM
[1]
  IC50: 18 nM
[2]
  IC50: 27 nM

## Cc1c(Cc2c(CNC(=O)[C@@H]3C[C@@H](F)CN3)nc3c(N)cc(N4CCOCC4)nn23)cccc1C(F)(F)F [Compound 38]
PIK3Cδ_h
  Kd: 14 nM
PIK3Cγ_h
  Kd: > 30200 nM
PIK3Cα_h
  Kd: 1000 nM
MTOR_h
  Kd: 355 nM
PIK3Cβ_h
  Kd: 0.2 nM
[1]
  IC50: 31 nM
[2]
  IC50: 54 nM

## Cc1c(Cc2c(CNC(=O)[C@@H]3CCCN3C)nc3c(N)cc(N4CCOCC4)nn23)cccc1C(F)(F)F [Compound 39]
PIK3Cδ_h
  Kd: 82 nM
PIK3Cγ_h
  Kd: 11700 nM
PIK3Cα_h
  Kd: 3550 nM
MTOR_h
  Kd: 7390 nM
PIK3Cβ_h
  Kd: 0.3 nM
[1]
  IC50: 38 nM
[2]
  IC50: 44 nM

## Cc1c(Cc2c(CNC(=O)[C@@H]3C[C@@H](O)CN3C)nc3c(N)cc(N4CCOCC4)nn23)cccc1C(F)(F)F [Compound 41]
PIK3Cδ_h
  Kd: 48 nM
PIK3Cγ_h
  Kd: 21400 nM
PIK3Cα_h
  Kd: 5370 nM
MTOR_h
  Kd: 6760 nM
PIK3Cβ_h
  Kd: 0.4 nM
[1]
  IC50: 18 nM
[2]
  IC50: 60 nM
